In publication PMC13194723, “Structural basis for pH-responsive amino acid transport via SLC7A4” (Nature Communications, 2026):
Changes are numbered by the printed parent chain. One block for each molecule: values may come before it.

How the values were obtained:
human SLC7A4 [1] = target: T1, human SLC7A4 (Homo sapiens, UniProt O43246); experiment: […] L-Leu uptake competition in HCT116 SLC7A5 KO cells overexpressing SLC7A4; also nanoDSF (~[…] °C) and proteoliposome uptake; type: cell-based
T1 construct: C-terminal FLAG tag
T1 sequence (O43246 1-635): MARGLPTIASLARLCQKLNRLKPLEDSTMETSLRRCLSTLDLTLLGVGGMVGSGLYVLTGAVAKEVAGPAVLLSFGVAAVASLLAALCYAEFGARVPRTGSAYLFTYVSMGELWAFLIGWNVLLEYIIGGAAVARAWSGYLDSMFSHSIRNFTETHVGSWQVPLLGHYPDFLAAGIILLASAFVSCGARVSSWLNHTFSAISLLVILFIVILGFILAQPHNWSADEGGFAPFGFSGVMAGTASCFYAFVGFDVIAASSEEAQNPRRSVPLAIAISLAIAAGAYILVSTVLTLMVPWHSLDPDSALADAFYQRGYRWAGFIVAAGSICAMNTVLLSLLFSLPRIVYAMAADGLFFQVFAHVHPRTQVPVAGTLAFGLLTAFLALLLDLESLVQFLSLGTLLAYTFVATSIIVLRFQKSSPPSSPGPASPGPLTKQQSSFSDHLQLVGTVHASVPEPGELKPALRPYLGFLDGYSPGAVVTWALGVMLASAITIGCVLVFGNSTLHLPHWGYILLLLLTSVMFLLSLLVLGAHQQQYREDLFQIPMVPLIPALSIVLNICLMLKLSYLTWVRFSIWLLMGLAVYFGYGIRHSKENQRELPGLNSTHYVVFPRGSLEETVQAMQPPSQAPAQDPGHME

[2] = target: T2, human SLC7A4 triple mutant (Tri-M) (Homo sapiens, UniProt O43246, L336S/L394M/V332S); experiment: […] L-Leu uptake and competition in HCT116 SLC7A5 KO cells; type: cell-based
T2 construct: C-terminal FLAG tag
T2 sequence (O43246 1-635 V332S/L336S/L394M): T1 sequence (O43246 1-635) with V332S, L336S, L394M

[3] = target: T2, human SLC7A4 triple mutant (Tri-M); experiment: competition of […] L-Leu uptake in HCT116 SLC7A5 KO cells; type: cell-based
human SLC7A4 [4] = target: T1, human SLC7A4; experiment: competition of […] L-Leu uptake in HCT116 SLC7A5 KO cells; also recognised in nanoDSF; not transported; type: cell-based
[5] = target: T3, Arabidopsis thaliana CAT4 (SLC7A4/CAT4) (Arabidopsis thaliana (Mouse-ear cress)., UniProt Q8W4K3); experiment: BLI; Octet Red 384; who was immobilised is not stated; conditions: both partners purified
T3 construct: Cationic amino acid transporter 4 (CAT4) of Arabidopsis thaliana, UniProt Q8W4K3; codon-optimised synthetic gene in pDDGFP-Leu2D; C-terminal TEV site (ENLYFQG/S), yeGFP and His12 removed by TEV protease, so part of the TEV site stays on the C-terminus; also called AtCAT4; Arabidopsis thaliana SLC7A4; source: S. cerevisiae BJ5460, purified in LMNG (Ni-NTA, TEV cleavage, HisTrap flow-through, SEC); …
T3 sequence (Q8W4K3 whole entry): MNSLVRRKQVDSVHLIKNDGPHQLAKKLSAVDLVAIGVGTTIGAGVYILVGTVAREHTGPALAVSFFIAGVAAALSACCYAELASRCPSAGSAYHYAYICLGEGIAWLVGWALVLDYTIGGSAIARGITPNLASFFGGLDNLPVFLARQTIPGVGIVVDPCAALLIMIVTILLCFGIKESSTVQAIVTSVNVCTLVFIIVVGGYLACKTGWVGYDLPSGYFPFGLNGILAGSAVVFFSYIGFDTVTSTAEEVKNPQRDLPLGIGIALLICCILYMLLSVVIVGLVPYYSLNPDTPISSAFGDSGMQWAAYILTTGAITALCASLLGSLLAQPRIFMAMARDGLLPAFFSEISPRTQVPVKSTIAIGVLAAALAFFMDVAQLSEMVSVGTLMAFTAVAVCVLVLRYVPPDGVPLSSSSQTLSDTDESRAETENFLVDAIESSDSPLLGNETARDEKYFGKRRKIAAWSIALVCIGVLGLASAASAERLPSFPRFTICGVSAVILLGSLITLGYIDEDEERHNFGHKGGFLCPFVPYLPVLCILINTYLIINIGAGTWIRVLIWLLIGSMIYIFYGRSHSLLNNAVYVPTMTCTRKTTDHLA

Molecule: CC(C)C[C@H](N)C(=O)O [L-Leucine]
IC50 (human SLC7A4 [1]): 24 ± 5 µM | IC50 [2]: 65 µM

Molecule: N=C(N)NCCC[C@H](N)C(=O)O [L-Arginine]
IC50 [3]: 48.6 ± 2.3 µM | IC50 (human SLC7A4 [4]): 680 ± 19 µM

Kd [5]: 0.0573 ± 0.0105 µM
B1: Sybody B5 (VHH)
VHH: QVQLVESGGGLVQAGGSLRLSCAASGFPVNMYWMHWYRQAPGKEREWVAAIQSYGQWTAYADSVKGRFTISRDNAKNTVYLQMNSLKPEDTAVYYCAVGVGGYYLGQGTQVTVS
notes: Synthetic nanobody selected from the loop sybody library against AtCAT4; also called SybB5; source: E. coli MC1061, periplasmic extraction, purified (Ni-NTA); not shown: Myc, C-terminal, kept; His6, C-terminal, kept
